Source: patent publication US20230263822A1, “MODULATION OF FACTOR 11 EXPRESSION” (Ionis Pharmaceuticals, Inc., priority 2008, published 2023)
Strand notation (5' to 3'): a small letter for the sugar, then the base; units joined by * are phosphorothioate-linked, units joined directly phosphodiester-linked; [ ] holds rarer units or linkages, { } end groups; capitals alone tell only the bases. e = 2'-O-(2-methoxyethyl) (MOE); [5mC] = 5-methylcytosine; d = 2'-deoxy (DNA)

Test system: human Factor 11 mRNA
Assay: Antisense inhibition of human Factor 11 in HepG2 cells, lipofectin, 75 nM (Example 1)
Format: cell-based
Conditions: 75 nM antisense oligonucleotide, ~24 h, relative to untreated control cells, gapmers targeted to SEQ ID NO: 1
Method: Antisense oligonucleotides targeted to a Factor 11 nucleic acid were tested for their effects on Factor 11 mRNA in vitro. Cultured HepG2 cells at a density of 10,000 cells per well were transfected using lipofectin reagent with 75 nM antisense oligonucleotide. After a treatment period of approximately 24 hours, RNA was isolated from the cells and Factor 11 mRNA levels were measured by quantitative real time PCR. Factor 11 mRNA levels were adjusted according to total RNA content, as measured by RIBOGREEN. Results are presented as percent inhibition of Factor 11, relative to untreated control cells.
The chimeric antisense oligonucleotides in Tables 1 and 2 were designed as 5-10-5 MOE gapmers. The gapmers are 20 nucleotides in length, wherein the central gap segment is comprised of 10 2′-deoxynucleotides and is flanked on both sides (in the 5′ and 3′ directions) by wings comprising 5 nucleotides each. Each nucleotide in the 5′ wing segment and each nucleotide in the 3′ wing segment has a 2′-MOE modification. The internucleoside linkages throughout each gapmer are phosphorothioate (P=S) linkages. All cytidine residues throughout each gapmer are 5-methylcytidines. “Target start site” indicates the 5′-most nucleotide to which the gapmer is targeted. “Target stop site” indicates the 3′-most nucleotide to which the gapmer is targeted. Each gapmer listed in Table 1 is targeted to SEQ TD NO: 1 (GENBANK Accession No. NM_000128.3) and each gapmer listed in Table 2 is targeted to SEQ TD NO: 2 (GENBANK Accession No. NT_022792.17, truncated from 19598000 to 19624000).

Row | Substance | % inhibition [%]
1 | 412205 (antisense eG*eT*eT*eT*eA*dT*dG*d[5mC]*d[5mC]*d[5mC]*dT*dT*d[5mC]*dA*dT*eG*eT*e[5mC]*eT*eA) [compound 412205] | 69
2 | 412207 (antisense e[5mC]*eG*eT*eG*eA*dA*dA*dA*dA*dG*dT*dG*dG*d[5mC]*dA*eG*eT*eG*eG*eA) [compound 412207] | 64
3 | 412208 (antisense eA*eG*eA*e[5mC]*eA*dA*dA*dT*dG*dT*dT*dA*d[5mC]*dG*dA*eT*eG*e[5mC]*eT*e[5mC]) [compound 412208] | 73
4 | 412209 (antisense eG*eT*eG*e[5mC]*eT*dT*d[5mC]*dA*dG*dT*dA*dG*dA*d[5mC]*dA*eA*eA*eT*eG*eT) [compound 412209] | 91
5 | 412210 (antisense eT*eG*e[5mC]*eA*e[5mC]*dA*dG*dG*dA*dT*dT*dT*d[5mC]*dA*dG*eT*eG*eA*eA*eA) [compound 412210] | 73
6 | 412211 (antisense eG*eA*eT*eT*eA*dG*dA*dA*dA*dG*dT*dG*d[5mC]*dA*d[5mC]*eA*eG*eG*eA*eT) [compound 412211] | 64
7 | 412214 (antisense eT*e[5mC]*e[5mC]*eT*eG*dG*dG*dA*dA*dA*dA*dG*dA*dA*dG*eG*eT*eA*eA*eA) [compound 412214] | 58
8 | 412216 (antisense eA*eA*eA*eG*eA*dT*dT*dT*d[5mC]*dT*dT*dT*dG*dA*dG*eA*eT*eT*e[5mC]*eT) [compound 412216] | 43
9 | 412217 (antisense eA*eA*eT*e[5mC]*e[5mC]*dA*d[5mC]*dT*d[5mC]*dT*d[5mC]*dA*dG*dA*dT*eG*eT*eT*eT*eT) [compound 412217] | 47
10 | 412218 (antisense eA*eA*e[5mC]*e[5mC]*eA*dG*dA*dA*dA*dG*dA*dG*d[5mC]*dT*dT*eT*eG*e[5mC]*eT*e[5mC]) [compound 412218] | 27
11 | 412219 (antisense eG*eG*e[5mC]*eA*eG*dA*dA*d[5mC]*dA*d[5mC]*dT*dG*dG*dG*dA*eT*eG*e[5mC]*eT*eG) [compound 412219] | 56
12 | 412220 (antisense eT*eG*eG*eT*eA*dA*dA*dA*dT*dG*dA*dA*dG*dA*dA*eT*eG*eG*e[5mC]*eA) [compound 412220] | 58
13 | 412221 (antisense eA*eT*e[5mC]*eA*eG*dT*dG*dT*d[5mC]*dA*dT*dG*dG*dT*dA*eA*eA*eA*eT*eG) [compound 412221] | 48
14 | 412222 (antisense eA*eA*e[5mC]*eA*eA*dT*dA*dT*d[5mC]*d[5mC]*dA*dG*dT*dT*d[5mC]*eT*eT*e[5mC]*eT*e[5mC]) [compound 412222] | 5
15 | 412226 (antisense eT*eT*eG*eA*eA*dG*dA*dA*dA*dG*d[5mC]*dT*dT*dT*dA*eA*eG*eT*eA*eA) [compound 412226] | 17
16 | 412227 (antisense eA*eG*eT*eA*eT*dT*dT*dT*dA*dG*dT*dT*dG*dG*dA*eG*eA*eT*e[5mC]*e[5mC]) [compound 412227] | 75
17 | 412228 (antisense eA*eT*eG*eT*eG*dT*dA*dT*d[5mC]*d[5mC]*dA*dG*dA*dG*dA*eT*eG*e[5mC]*e[5mC]*eT) [compound 412228] | 71
18 | 412229 (antisense eG*eT*eA*e[5mC]*eA*d[5mC]*dT*d[5mC]*dA*dT*dT*dA*dT*d[5mC]*d[5mC]*eA*eT*eT*eT*eT) [compound 412229] | 64
19 | 412230 (antisense eG*eA*eT*eT*eT*dT*dG*dG*dT*dG*dG*dT*dA*d[5mC]*dA*e[5mC]*eT*e[5mC]*eA*eT) [compound 412230] | 52
20 | 412231 (antisense eT*e[5mC]*e[5mC]*eT*eG*dG*dG*d[5mC]*dT*dT*dG*dA*dT*dT*dT*eT*eG*eG*eT*eG) [compound 412231] | 74
21 | 412232 (antisense eG*eG*e[5mC]*e[5mC]*eA*d[5mC]*dT*d[5mC]*dA*d[5mC]*d[5mC]*dA*d[5mC]*dG*dA*eA*e[5mC]*eA*eG*eA) [compound 412232] | 80
22 | 412233 (antisense eT*eG*eT*e[5mC]*eT*d[5mC]*dT*dG*dA*dG*dT*dG*dG*dG*dT*eG*eA*eG*eG*eT) [compound 412233] | 64
23 | 412234 (antisense eG*eT*eT*eT*e[5mC]*d[5mC]*dA*dA*dT*dG*dA*dT*dG*dG*dA*eG*e[5mC]*e[5mC]*eT*e[5mC]) [compound 412234] | 60

Row | Substance | % inhibition [%]
24 | 412235 (antisense eA*eT*eA*eT*e[5mC]*d[5mC]*dA*d[5mC]*dT*dG*dG*dT*dT*dT*d[5mC]*e[5mC]*eA*eA*eT*eG) [compound 412235] | 57
25 | 412236 (antisense e[5mC]*e[5mC]*eA*eT*eA*dG*dA*dA*dA*d[5mC]*dA*dG*dT*dG*dA*eG*e[5mC]*eG*eG*e[5mC]) [compound 412236] | 72
26 | 412237 (antisense eT*eG*eA*e[5mC]*eT*d[5mC]*dT*dA*d[5mC]*d[5mC]*d[5mC]*d[5mC]*dA*dT*dA*eG*eA*eA*eA*e[5mC]) [compound 412237] | 48
27 | 412238 (antisense e[5mC]*eG*e[5mC]*eA*eA*dA*dA*dT*d[5mC]*dT*dT*dA*dG*dG*dT*eG*eA*e[5mC]*eT*e[5mC]) [compound 412238] | 71
28 | 412239 (antisense eT*eT*e[5mC]*eA*eG*dA*dT*dT*dG*dA*dT*dT*dT*dA*dA*eA*eA*eT*eG*e[5mC]) [compound 412239] | 43
29 | 412240 (antisense eT*eG*eA*eA*e[5mC]*d[5mC]*d[5mC]*d[5mC]*dA*dA*dA*dG*dA*dA*dA*eG*eA*eT*eG*eT) [compound 412240] | 32
30 | 412241 (antisense eT*eA*eT*eT*eA*dT*dT*dT*d[5mC]*dT*dT*dG*dA*dA*d[5mC]*e[5mC]*e[5mC]*e[5mC]*eA*eA) [compound 412241] | 41
31 | 412242 (antisense eA*eA*e[5mC]*eA*eA*dG*dG*d[5mC]*dA*dA*dT*dA*dT*d[5mC]*dA*eT*eA*e[5mC]*e[5mC]*e[5mC]) [compound 412242] | 49
32 | 412243 (antisense eT*eT*e[5mC]*e[5mC]*eA*dG*dT*dT*dT*d[5mC]*dA*dA*d[5mC]*dA*dA*eG*eG*e[5mC]*eA*eA) [compound 412243] | 70
33 | 412244 (antisense eG*eA*eA*eG*eG*d[5mC]*dA*dG*dG*d[5mC]*dA*dT*dA*dT*dG*eG*eG*eT*e[5mC]*eG) [compound 412244] | 53
34 | 412245 (antisense eG*eT*e[5mC]*eA*e[5mC]*dT*dA*dA*dG*dG*dG*dT*dA*dT*d[5mC]*eT*eT*eG*eG*e[5mC]) [compound 412245] | 75
35 | 412246 (antisense eA*eG*eA*eT*e[5mC]*dA*dT*d[5mC]*dT*dT*dA*dT*dG*dG*dG*eT*eT*eA*eT*eT) [compound 412246] | 68
36 | 412247 (antisense eT*eA*eG*e[5mC]*e[5mC]*dG*dG*d[5mC]*dA*d[5mC]*dA*dG*dA*dT*d[5mC]*eA*eT*e[5mC]*eT*eT) [compound 412247] | 75
37 | 412248 (antisense e[5mC]*e[5mC]*eA*eG*eA*dT*dG*d[5mC]*d[5mC]*dA*dG*dA*d[5mC]*d[5mC]*dT*e[5mC]*eA*eT*eT*eG) [compound 412248] | 53
38 | 412249 (antisense e[5mC]*eA*eT*eT*e[5mC]*dA*d[5mC]*dA*d[5mC]*dT*dG*d[5mC]*dT*dT*dG*eA*eG*eT*eT*eT) [compound 412249] | 55
39 | 412250 (antisense eT*eG*eG*e[5mC]*eA*d[5mC]*dA*dG*dT*dG*dA*dA*d[5mC]*dT*d[5mC]*eA*eA*e[5mC]*eA*e[5mC]) [compound 412250] | 63
40 | 412251 (antisense e[5mC]*eT*eA*eG*e[5mC]*dA*dT*dT*dT*dT*d[5mC]*dT*dT*dA*d[5mC]*eA*eA*eA*e[5mC]*eA) [compound 412251] | 58
41 | 412252 (antisense eT*eT*eA*eT*eG*dG*dT*dA*dA*dT*dT*d[5mC]*dT*dT*dG*eG*eA*e[5mC]*eT*e[5mC]) [compound 412252] | 39
42 | 412253 (antisense eA*eA*eA*eT*eA*dT*dT*dG*d[5mC]*d[5mC]*dT*dT*dA*dT*dG*eG*eT*eA*eA*eT) [compound 412253] | 20
43 | 412254 (antisense eT*eA*eT*e[5mC]*eT*dG*d[5mC]*d[5mC]*dT*dA*dT*dA*dT*dA*dG*eT*eA*eA*eT*e[5mC]) [compound 412254] | 16
44 | 412255 (antisense eG*e[5mC]*e[5mC]*eA*e[5mC]*dT*dA*d[5mC]*dT*dT*dG*dG*dT*dT*dA*eT*eT*eT*eT*e[5mC]) [compound 412255] | 38
45 | 412256 (antisense eA*eA*e[5mC]*eA*eA*dA*dT*d[5mC]*dT*dA*dT*dT*dT*dA*dT*eG*eG*eT*eG*eG) [compound 412256] | 39
46 | 412257 (antisense e[5mC]*eT*eG*e[5mC]*eA*dA*dA*dA*dT*dG*dG*dT*dG*dA*dA*eG*eA*e[5mC]*eT*eG) [compound 412257] | 57
